Measurements published in PubChem BioAssay AID2060613 (Molecular Pharmacology Branch, DTP, NCI, 2025).

Tested on: 233499-124-R-J3-PDC complex spheroid viability
Test: Anticancer human tumor 233499-124-R-J3-PDC patient-derived colon adenocarcinoma cell line growth inhibition [CLK]
Settings: for IC50: curve of first compound; for viability, T/C: stronger effect = lower value
How it was run: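 Patient-derived tumor cells grown as complex spheroids with HUVEC endothelial cells and mesenchymal stem cells, treated with drug combinations. Concentrations descend in half-log steps from near clinical Cmax, or from 10 microM if Cmax unknown.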
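Also: spheroids exposed to the drug combinations for seven days.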
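For viability, T/C in this document: percent viability relative to DMSO vehicle control wells taken as 100%.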

## NC(=O)C(=Cn1cnc(-c2cc(C(F)(F)F)cc(C(F)(F)F)c2)n1)c1cncnc1 + CN1CCN(c2cc(C(=O)Nc3cc4cc(-c5cnn(C)c5)ccc4cn3)ccn2)CC1
Second compound 0.0316 µM
  IC50: 181 nM
Second compound 0.1 µM
  IC50: 76.8 nM
Second compound 0.316 µM
  IC50: < 9.49 nM
Second compound 1 µM
  IC50: < 9.49 nM
Second compound 3.16 µM
  IC50: < 9.49 nM
Second compound 10 µM
  IC50: < 9.49 nM
Second compound 0.0316 µM, first compound 0.00949 µM
  viability, T/C: 72.5%
Second compound 0.0316 µM, first compound 0.03 µM
  viability, T/C: 85.6%
Second compound 0.0316 µM, first compound 0.0949 µM
  viability, T/C: 67.3%
Second compound 0.0316 µM, first compound 0.3 µM
  viability, T/C: 35.2%
Second compound 0.0316 µM, first compound 0.949 µM
  viability, T/C: 10.4%
Second compound 0.0316 µM, first compound 3 µM
  viability, T/C: 2.15%
Second compound 0.1 µM, first compound 0.00949 µM
  viability, T/C: 102%
Second compound 0.1 µM, first compound 0.03 µM
  viability, T/C: 96.2%
Second compound 0.1 µM, first compound 0.0949 µM
  viability, T/C: 39.2%
Second compound 0.1 µM, first compound 0.3 µM
  viability, T/C: 7.63%
Second compound 0.1 µM, first compound 0.949 µM
  viability, T/C: 0.53%
Second compound 0.1 µM, first compound 3 µM
  viability, T/C: 0.43%
Second compound 0.316 µM, first compound 0.00949 µM
  viability, T/C: 22.2%
Second compound 0.316 µM, first compound 0.03 µM
  viability, T/C: 13.2%
Second compound 0.316 µM, first compound 0.0949 µM
  viability, T/C: 0.29%
Second compound 0.316 µM, first compound 0.3 µM
  viability, T/C: 0.23%
Second compound 0.316 µM, first compound 0.949 µM
  viability, T/C: 0.39%
Second compound 0.316 µM, first compound 3 µM
  viability, T/C: 1.07%
Second compound 1 µM, first compound 0.00949 µM
  viability, T/C: 0.3%
Second compound 1 µM, first compound 0.03 µM
  viability, T/C: 0.31%
Second compound 1 µM, first compound 0.0949 µM
  viability, T/C: 0.31%
Second compound 1 µM, first compound 0.3 µM
  viability, T/C: 0.25%
Second compound 1 µM, first compound 0.949 µM
  viability, T/C: 0.48%
Second compound 1 µM, first compound 3 µM
  viability, T/C: 0.23%
Second compound 3.16 µM, first compound 0.00949 µM
  viability, T/C: 0.3%
Second compound 3.16 µM, first compound 0.03 µM
  viability, T/C: 0.26%
Second compound 3.16 µM, first compound 0.0949 µM
  viability, T/C: 0.25%
Second compound 3.16 µM, first compound 0.3 µM
  viability, T/C: 0.25%
Second compound 3.16 µM, first compound 0.949 µM
  viability, T/C: 0.21%
Second compound 3.16 µM, first compound 3 µM
  viability, T/C: 0.19%
Second compound 10 µM, first compound 0.00949 µM
  viability, T/C: 0.13%
Second compound 10 µM, first compound 0.03 µM
  viability, T/C: 0.12%
Second compound 10 µM, first compound 0.0949 µM
  viability, T/C: 0.19%
Second compound 10 µM, first compound 0.3 µM
  viability, T/C: 0.17%
Second compound 10 µM, first compound 0.949 µM
  viability, T/C: 0.19%
Second compound 10 µM, first compound 3 µM
  viability, T/C: 0.21%
